According to patent publication US11154513B2, “Semifluorinated compounds” (NOVALIQ GMBH, priority 2015, dated 2021):
Like-named read-outs stand apart in the source and are kept apart here. Values belong to the compound of their own block, whether it stands above or below them.

Key:
[1] = Refractive index of the mixtures; type: physicochemical; details: mixture with the 1-perfluoroalkylalkane; FIG. 2, FIG. 3
Description: In a particularly preferred embodiment, the refractive index of the liquid solution is in the range of from about 1.30 to about 1.35 at 20° C., as determined by refractometer.
The refractive index of the mixtures was also determined. For topically applied ophthalmic compositions, the refractive index of the composition should preferably be similar, or adapted to that of the eye and lens, for instance as close to that of physiological tear fluid as possible. If the refractive index of a composition is not similar, when applied to the surface of the eye, a patient may experience blurring or impaired vision. It is observed, that the amount of the compound CF3(CF2)5—CH(CH3)—(CH2)5—CH3 or has an effect on refractive index.

[2] = Evaporation time of 10 μL droplet on glass surface; type: physicochemical; details: for effect of increased amount of the compound on evaporation time of the mixture: FIG. 1; for Evaporation time: 10 μL droplet, glass surface, room temperature; for Evaporation time / Relative Evaporation Time: F4H5 / CF3—(CF2)3—CH(CH3)—(CH2)2—CH3 mixtures; for Relative Evaporation Time: relative to Sample 1
Description: The evaporation time of mixtures of the semifluorinated alkane CF3(CF2)3(CH2)4CH3(F4H5) and CF3—(CF2)3—CH(CH3)—(CH2)2—CH3 was evaluated. A droplet of 10 μL volume of each mixture was placed on a glass surface at room temperature. Time until evaporation was recorded by video-monitoring.
The evaporation time of mixtures of the semifluorinated alkane CF3(CF2)5(CH2)7CH3(F6H8) and CF3(CF2)5—CH(CH3)—(CH2)5—CH3 was evaluated analogously.

Rabbit corneas = test system: Rabbit corneas
Description: Anim., 2008 (36) p 25-32; and N. Schrage et al, Graefes Arch Clin Exp Ophthalmol 2012 (250), 1330-1340).
Method. Rabbit corneas were obtained and placed in an artificial anterior ocular chamber which was gently filled with serum-free minimal essential medium (Eagle's MEM) containing Earle's salts and HEPES buffer for nutrition. The medium was constantly replenished by a micropump to imitate the physiological condition of the eye. The culture chambers were held at 32° C. under normal air without supplementary CO2 and >95% relative humidity. Five corneas per test substance (n=5) were used except for the positive control with which two corneas (n=2) were tested.
After 12 h of stabilization in the culture chamber, the corneas were evaluated by microscopy and corneas with intact epithelium and without opacities were selected. Four small abrasions (2.3-4.3 mm^2) were applied to the surface of the selected corneas with a cornea drill. All defects were monitored by fluorescein sodium staining (0.17% aq. solution) and microscopy.
The test substances were administered one hour after induction of the corneal erosion and were applied six times daily onto the apex of the corneas (30-50 μL every four hours). A soft-tipped cannula, with continuous suction was placed on the lowest part of the corneoscleral region within the culturing chamber to remove any excess fluid. Experiments were terminated after 3 days of application. Biomicroscopic images of the corneas were taken daily to document the corneal healing process using a phase-contrast microscope integrated camera (KY-F1030U, JVC, (Bad Vilbel, Del.) mounted on a Z16 APO Microscope (Wetzlar, Del.)). All defects were monitored by fluorescein sodium stains (0.17% aq. solution) with yellow green fluorescence indicating the areas of epithelial defects. Erosion sizes were determined using a software tool of the microscope (DISKUS). At the end of the 3 days, the experiment was terminated and all corneas were fixed in 3.7% formaldehyde and stained with a hematoxylin-eosin dye for microscopic evaluation. To monitor the metabolic activity of the cornea, glucose and lactate concentrations were photometrically quantified in the outflow medium from the artificial anterior chambers.

[3] = Differential Scanning Calorimetry of mixtures
Description: Differential Scanning Calorimetry (DSC 1, Mettler Toledo, Greifensee, Switzerland) is used to characterize structure and phase behavior of mixtures of CF3(CF2)5—CH(CH3)—(CH2)5—CH3 and CF3(CF2)5(CH2)7CH3. DSC was employed to obtain data on transitions by temperature rising scans with heating rate of 1° C./min. Sealed standard aluminum crucibles (40 μl, Mettler Toledo) were used.

[4] = DSC heating rate 1° C./min, mixture with CF3(CF2)5(CH2)7CH3

Compound: CCCC(C)C(F)(F)C(F)(F)C(F)(F)C(F)(F)F (stereo not shown) [CF3—(CF2)3—CH(CH3)—(CH2)2—CH3, 2-Perfluorobutyl-pentane]
- effect of increased content on refractive index of the mixture [1]: increasing refractive index value
- effect of increased amount of the compound on evaporation time of the mixture [2]: increase the evaporation time

Compound: CCCCCC(F)(F)C(F)(F)C(F)(F)C(F)(F)F [Sample 1, CF3(CF2)3(CH2)4CH3]
- Evaporation time [2]: 304 s
- Relative Evaporation Time [2]: 1.00

Compound: CCCC(C)C(F)(F)C(F)(F)C(F)(F)C(F)(F)F (stereo not shown) [Sample 3, CF3—(CF2)3—CH(CH3)—(CH2)2—CH3]
- Evaporation time [2]: 322 s
- Relative Evaporation Time [2]: 1.064

Compound: benzalkonium chloride [0.01% BAC]
- course of induced epithelial lesions (Rabbit corneas): progressive increase of the induced epithelial lesions
- Corneal Erosion Size, Mean (Rabbit corneas; Day 0): 11.57 mm^2
- Corneal Erosion Size, Mean (Rabbit corneas; Day 1, applied six times daily 30-50 μL): 5.91 mm^2
- Corneal Erosion Size, Mean (Rabbit corneas; Day 2, applied six times daily 30-50 μL): 8.74 mm^2
- Corneal Erosion Size, Mean (Rabbit corneas; Day 3, applied six times daily 30-50 μL): 17.46 mm^2

Compound: CCCCCCC(C)C(F)(F)C(F)(F)C(F)(F)C(F)(F)C(F)(F)C(F)(F)F (stereo not shown) [CF3—(CF2)5—CH(CH3)—(CH2)5—CH3, 2-Perfluorohexyl-octane]
- effect on melting enthalpy ([3]; presence in a mixture of F6H8): decreased
- effect on melting temperature ([3]; presence in a mixture of F6H8): significant reduction
- effect of increased content on refractive index of the mixture [1]: increasing refractive index value
- effect of increased amount of the compound on evaporation time of the mixture [2]: significantly decreases the evaporation time

- Low temperature transition Endset [3, 4]: −38.32 °C
- Low temperature transition Onset [3, 4]: −45.47 °C
- Low temperature transition Peak [3, 4]: −40.37 °C
- Low temperature transition ΔH [3, 4]: -0.69 J/g
Compound: CF3(CF2)5(CH2)7CH3 [0 wt % CF3—(CF2)5—CH(CH3)—(CH2)5—CH3]
